# Where two headings read alike, the source gives them in different places.
# How the values were obtained:
# hCBS = molecular target: T1, hCBS (Homo sapiens, UniProt P35520); assay: High-throughput screening of hCBS enzymatic reaction inhibitors (H2S detection with DTNB in microwell plate); type: biochemical
# T1 construct: made in house
# T1 sequence (P35520 1-551): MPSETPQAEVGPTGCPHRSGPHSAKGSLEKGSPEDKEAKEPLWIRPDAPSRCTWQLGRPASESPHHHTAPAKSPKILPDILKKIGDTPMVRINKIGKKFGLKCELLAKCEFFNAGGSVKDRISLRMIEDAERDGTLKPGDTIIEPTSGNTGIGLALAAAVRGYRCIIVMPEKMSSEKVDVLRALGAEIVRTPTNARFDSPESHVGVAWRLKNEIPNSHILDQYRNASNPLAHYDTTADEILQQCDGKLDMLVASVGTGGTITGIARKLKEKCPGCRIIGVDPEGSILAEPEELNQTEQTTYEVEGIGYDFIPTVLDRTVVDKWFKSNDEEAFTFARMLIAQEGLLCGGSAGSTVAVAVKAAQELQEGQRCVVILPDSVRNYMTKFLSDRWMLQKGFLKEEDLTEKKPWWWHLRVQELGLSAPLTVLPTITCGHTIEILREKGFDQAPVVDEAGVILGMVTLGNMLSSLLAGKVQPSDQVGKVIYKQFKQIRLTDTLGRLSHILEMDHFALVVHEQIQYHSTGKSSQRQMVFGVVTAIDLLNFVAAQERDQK
# hDDC = molecular target: T2, hDDC (Homo sapiens, UniProt P20711); assay: IC50 to hDDC (specificity test, coupled enzyme assay); type: biochemical
# T2 construct: made in house
# T2 sequence (P20711 1-480): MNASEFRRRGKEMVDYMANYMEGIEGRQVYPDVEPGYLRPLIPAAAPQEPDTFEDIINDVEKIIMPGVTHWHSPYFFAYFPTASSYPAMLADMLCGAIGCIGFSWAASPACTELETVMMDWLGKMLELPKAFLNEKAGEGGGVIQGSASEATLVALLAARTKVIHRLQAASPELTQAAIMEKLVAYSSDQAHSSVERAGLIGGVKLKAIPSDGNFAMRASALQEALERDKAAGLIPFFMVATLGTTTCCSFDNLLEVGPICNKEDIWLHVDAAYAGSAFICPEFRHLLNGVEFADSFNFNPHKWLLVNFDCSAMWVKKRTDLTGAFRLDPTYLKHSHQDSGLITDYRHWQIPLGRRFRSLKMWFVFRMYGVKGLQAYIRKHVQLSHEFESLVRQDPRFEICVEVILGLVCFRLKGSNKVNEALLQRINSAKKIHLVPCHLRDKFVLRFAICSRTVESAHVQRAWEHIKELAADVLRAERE
# Protocol: By referring to the experiment method in Assay Drug Dev Technol. […] Smithson, IC50 of the 9 compounds to hDDC was determined.
# [1] = 100 nM hCBS, 4 mM L-Cys, 4 mM D,L-HCys, pH 8.6, 60 min at 37° C., read-out: IC50 to hCBS
SMILES,IC50 (hCBS; [1]) [µM],IC50 (hDDC; read-out: IC50 to hDDC) [µM],IC50 (hCBS) [µM],IC50 (hDDC) [µM]
CCN(CC)c1ccc(C(=C2C=CC(=[N+](CC)CC)C=C2)c2ccc(N(CC)CC)cc2)cc1 [Compound 3],15,25,,
N=C(N)NCCCS(=O)(=O)Nc1ccc(Nc2c3ccccc3nc3cc([N+](=O)[O-])ccc23)cc1 [Compound 7],40,60,,
Cn1ncnc2c(=O)n(C)c(=O)nc1-2 [Compound 9],12,,,
CC1CCN(C2=C(Cl)C(=O)c3ccccc3C2=O)CC1 [Compound 5],20,300,,
COc1ccc2c(NCCCCCCNc3c4ccccc4nc4cc(OC)ccc34)c3ccccc3nc2c1 [Compound 6],30,110,,
"C/C1=C2/[N]([Co][OH])[C@H]([C@H](CC(N)=O)[C@@]2(C)CCC(=O)NC[C@@H](C)OP(=O)(O)OC2[C@@H](CO)O[C@H](n3cnc4cc(C)c(C)cc43)[C@H]2O)[C@]2(C)N=C(/C(C)=C3N=C(/C=C4N=C1[C@@H](CCC(N)=O)C\4(C)C)[C@@H](CCC(N)=O)[C@]\3(C)CC(N)=O)[C@@H](CCC(N)=O)[C@]2(C)CC(N)=O (stereo partly shown) [Compound 8, Hydroxocobalamin, reference compound]",,,35,150
CCCCCCCCCCCCCCCC[N+](C)(C)CCN(Cc1ccc(OC)cc1)c1ncccn1 [Compound 2],8,16,,

# — US20160348148A1, “MICROWELL PLATE FOR HIGH-THROUGHPUT DETECTION AND APPLICATION THEREOF” (SHANGHAI JIAOTONG UNIVERSITY, priority 2013, published 2016)
